Assay results as given in patent US20010016593A1, “Element giving rapid release of nicotine for transmucosal administration” (priority 1999, published 2001).

Columns and labels:
[1] = 10 mg tablets swallowed at two hour intervals; cited from earlier work
[2] = Element placed in the mouth: subjectively reported nicotine pulse sensation; type: in vivo, humans; details: equivalent amounts of nicotine
Excerpt: The experiments of Examples 1-16 above describe the physiological effects of consuming a measured (calculated) dose of nicotine in the manner of the instant invention. Moreover, the inventor has found a distinct physiological and mental sensation associated with the administration of one or more nicotine doses. This is believed to strongly resemble the physiological and mental sensation associated with inhaling a puff of the smoke of burning tobacco, which it is believed have some pleasurable component or consideration thereof on the part of the recipient. There is believed to be some longer-lasting physiological and/or mental satisfaction, or lack of further nicotine effect desire, after one or more administrations of nicotine, just as is the case for most people after smoking a part or all of one or more cigarettes.
The examples as described above are of necessity reported in a subjective manner.

[3] = cigarette smoking; cited from earlier work
[4] = cited from earlier work
[5] = during cigarette smoking; cited from earlier work
[6] = in vivo; cited from earlier work
[7] = solutions on shaved bellies of cats; cited from earlier work
[8] = pH less than 7; cited from earlier work

| Compound | effect of swallowed tablets [1] | efficiency of transmucosal administration compared with smoking [2] | time to carry nicotine from the lungs to the brain [3] | confusion, memory loss and lack of alertness associated with Alzheimer's disease ([4]; nicotine administration) | local tolerability of the injection ([4]; subcutaneous injection, under some conditions) | discriminative sensitivity and reaction time ([4]; subcutaneous injection, patients with dementia of the Alzheimer type) | arterial levels exceeding venous levels [5] | mental efficiency, rapid information processing, learning, and vigilance [6] | rate of percutaneous absorption [7] | bucal absorption [8] |
| --- | --- | --- | --- | --- | --- | --- | --- | --- | --- | --- |
| CN1CCCC1c1cccnc1.O=C(O)C(O)C(O)C(=O)O (stereo not shown) [nicotine tartrate] | only a small effect |  |  |  |  |  |  |  |  |  |
| CN1CCCC1c1cccnc1 (stereo not shown) [nicotine] |  | not as efficient as smoking | less than 20 seconds | combated the confusion, memory loss and lack of alertness | severe muscular irritation | efficacious in improving discriminative sensitivity and reaction time | six to ten | improve mental efficiency, rapid information processing, learning, and vigilance | much more rapidly than nicotine salts | very slow |
